Measurements: patent publication US12060360B2, “Lysyl oxidase inhibitors” (The Institute of Cancer Research: Royal Cancer Hospital, priority 2017, dated 2024)

Columns and labels:
LOX = molecular target: T1, LOX (Mus musculus, UniProt P28301); experiment: LOX activity in cysts assay (LOX-roGFP2 biosensor, MDCK cysts); format: cell-based; conditions: MDCK cysts
T1 construct: Full length LOX cDNA was then PCR cloned into pEGFP-N1 (Clonetech), or biosensor vector proGFP2-N1; expressed in transfected cells; host or cells: MDCK cells grown as cysts on Matrigel, G418-selected
T1 sequence (P28301 163-411): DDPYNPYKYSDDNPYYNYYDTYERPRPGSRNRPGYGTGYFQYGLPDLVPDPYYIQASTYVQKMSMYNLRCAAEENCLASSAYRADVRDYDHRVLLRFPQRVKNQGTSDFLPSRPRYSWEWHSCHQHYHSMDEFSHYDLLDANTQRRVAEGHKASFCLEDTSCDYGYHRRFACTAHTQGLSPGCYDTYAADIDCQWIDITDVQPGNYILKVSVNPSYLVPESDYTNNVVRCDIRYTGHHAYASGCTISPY
Outline: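 Live MDCK cysts grown 10 days on Matrigel and expressing mouse LOX fused to the roGFP2 redox biosensor, with inhibitors added 30 min before confocal imaging. Oxidised/reduced ratio (405/488 nm excitation, 500–530 nm emission) at the basal cyst surface taken as LOX activity. DMSO defines 0% and 1 mM BAPN 100% inhibition.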

[1] = tested on: MMTV-PyMT breast transgenic model lung metastases; experiment: MMTV-PyMT transgenic mouse breast cancer model, lung metastases quantification T/C; format: in vivo; conditions: 200 mg/kg po qd, treated/vehicle control, p<0.05
Method: (§1) MMTV-PyMT (Guy et al, 1992) (FVB) female mice were randomized by non-statistical methods to LOX inhibitor treatment groups from day 70 post-birth, when animals had no detectable tumour. Mice were treated daily by oral gavage with LOX inhibitor in vehicle, or daily vehicle (5% DMSO/2.5% Tween20 in water) by oral gavage. Tumour size was determined unblinded by caliper measurements of tumour length, width and depth and volume was calculated as 0.5236×length×width×depth (mm). In all experiments, mice were humanely killed and mammary tumours and lungs were collected when the primary tumours reached ethical limits or signs of ill health.
For lung metastases quantification, all mouse tissue samples were fixed in 10% formalin (Sigma) and embedded in paraffin. Samples were sectioned and hematoxylin and eosin (H&E) stained. Samples were imaged with a Leica CN400 slide scanner. Lung metastases were manually selected using Pen tool in ImageScope. Lung metastases number was counted and area was measured using ImageScope. The investigator was blinded to the experimental groups. The ratio of average metastases surface between compound treated and vehicle control treated (TIC) is calculated. The ratio of average metastases numbers between compound treated and vehicle control treated (T/C) is also calculated. Reduction in metastases area and/or in metastatses number in the compound treated group compared to vehicle-treated control group results in T/C<1. The antimetastatic efficacy of LOX inhibitors described in this invention, as measured by T/C in a model of breast cancer metastasising to lungs is shown in Table 2 and is significant (p<0.05) for all the data presented.

[2] = tested on: MMTV-PyMT breast transgenic model primary tumour; experiment: MMTV-PyMT transgenic mouse breast cancer model, primary tumour T/C; format: in vivo; conditions: 200 mg/kg po qd; ratio of average tumour volume treated/vehicle control; p<0.05
Method: (§2) All procedures involving animals were approved by the Animal Welfare and Ethical Review Body of the Institute of Cancer Research and Cancer Research UK Manchester Institute in accordance with National Home Office regulations under the Animals (Scientific Procedures) Act 1986 and according to the guidelines of the Committee of the National Cancer Research Institute Tumour size was determined by caliper measurements of tumour length, width and depth and volume was calculated as volume=0.5236×length×width×depth (mm).
as §1
(§3) For therapeutic efficacy assessment, the ratio of average tumour volume between compound treated and vehicle control treated (T/C) is calculated. Reduction in tumour volume in the compound treated group compared to vehicle-treated control group results in T/C<1. The efficacy of LOX inhibitors described in this invention, as measured by T/C in a pancreatic cancer model, a colorectal cancer model and a breast cancer model is shown in Table 2 and is significant (p<0.05) for all the data presented.

[3] = tested on: MDA-MB-231 human breast adenocarcinoma; experiment: MDA-MB-231 xenografts, primary tumour volume T/C; format: in vivo; conditions: 200 mg/kg po qd, ratio of average tumour volume treated/vehicle control, p<0.05
Method: as §2
MDA-MB-231 xenografts. Ncr nude female mice at 6 weeks old from Charles River were injected into the third upper nipple mammary fat pad with MDA-MB-231 Luc 4×10^6 in 100 ul PB (50:50 Matrigel). When tumours reach a mean of 80 mm^3 around 10 days post cell inoculation the animals are allocated in 4 groups of 8. LOX inhibitor treatment is then administrated by oral gavage dosing, at 0.2 ml/20 g bodyweight once daily for up to 28 consecutive days. Tumours and weights are measured twice weekly using calipers and the animals can be imaged using non invasive method by bioluminescence using IVIS 200 imaging machine, weekly using 150 mg/kg luciferin administrate intraperitoneal or subcutaneous. At the end of the study the animals are culled, and samples taken, fixed or snap frozen in liquid nitrogen. Frozen samples kept at −80 degree centigrade until being analyzed and the fixed samples stained according to desired marker.
as §3

[4] = tested on: SW620 human colorectal carcinoma cells (mutant RAS); experiment: SW620 xenografts, primary tumour volume T/C; format: in vivo; conditions: 200 mg/kg po qd; ratio of average tumour volume treated/vehicle control; p<0.05
Method: as §2
SW620 xenografts: NCr mice were inoculated subcutaneously in the right flank with 5×10^6 SW620 cells at 100 ul suspension per animal. Groups of 7-8 mice were assigned to treatment following stratified allocation of tumour volumes with a median size of circa 100 mm^3. […] Tumours and weights are measured twice weekly using calipers. […] Frozen samples are kept at −80 degree centigrade until being analysed and the fixed samples stained according to the desired marker.
as §3, with “Reduction in tumour volume in the compound treated group compared to vehicle-treated control group results in T/C<1.” left out

## CC1(C)C[C@@H]2CN(C(=O)N3CCS(=O)(=O)CC3)C[C@H]1N(c1ccc(N3CCS(=O)(=O)CC3)cc1)C2 [Example 8, (1,1-dioxidothiomorpholino)((1S,5S)-6-(4-(1,1-dioxidothiomorpholino)phenyl)-9,9-dimethyl-3,6-diazabicyclo[3.2.2]nonan-3-yl)methanone]
LOX; 2.5 uM (stated in cell), DMSO = 0%, BAPN 1 mM = 100% inhibition, read-out: LOX biosensor inhibition (cyst) @ 2.5 uM
  inhibition at 2.5 µM: 100%
LOX; roGFP2 ratio at basal surface, read-out: LOX biosensor IC50 (cyst)
  IC50: 540 nM
[1]; lung metastases area
  T/C MMT-PyMT breast transgenic model - metastases b) Area: b) 0.012
[1]; lung metastases number
  T/C MMT-PyMT breast transgenic model - metastases a) Count: a) 0.1
[2]
  T/C MMT-PyMT breast transgenic model - primary tumour: 0.22
[3]
  response vs control in vivo at 200 mg/kg: 54%
[4]
  T/C SW620 human colorectal carcinoma cells (mutant RAS) - primary tumour: 0.48
